The structures appear in SMILES notation. Where a name gives a salt, the structure may show the parent alone.

Chain of GCN2 (Q9P2K8 whole entry): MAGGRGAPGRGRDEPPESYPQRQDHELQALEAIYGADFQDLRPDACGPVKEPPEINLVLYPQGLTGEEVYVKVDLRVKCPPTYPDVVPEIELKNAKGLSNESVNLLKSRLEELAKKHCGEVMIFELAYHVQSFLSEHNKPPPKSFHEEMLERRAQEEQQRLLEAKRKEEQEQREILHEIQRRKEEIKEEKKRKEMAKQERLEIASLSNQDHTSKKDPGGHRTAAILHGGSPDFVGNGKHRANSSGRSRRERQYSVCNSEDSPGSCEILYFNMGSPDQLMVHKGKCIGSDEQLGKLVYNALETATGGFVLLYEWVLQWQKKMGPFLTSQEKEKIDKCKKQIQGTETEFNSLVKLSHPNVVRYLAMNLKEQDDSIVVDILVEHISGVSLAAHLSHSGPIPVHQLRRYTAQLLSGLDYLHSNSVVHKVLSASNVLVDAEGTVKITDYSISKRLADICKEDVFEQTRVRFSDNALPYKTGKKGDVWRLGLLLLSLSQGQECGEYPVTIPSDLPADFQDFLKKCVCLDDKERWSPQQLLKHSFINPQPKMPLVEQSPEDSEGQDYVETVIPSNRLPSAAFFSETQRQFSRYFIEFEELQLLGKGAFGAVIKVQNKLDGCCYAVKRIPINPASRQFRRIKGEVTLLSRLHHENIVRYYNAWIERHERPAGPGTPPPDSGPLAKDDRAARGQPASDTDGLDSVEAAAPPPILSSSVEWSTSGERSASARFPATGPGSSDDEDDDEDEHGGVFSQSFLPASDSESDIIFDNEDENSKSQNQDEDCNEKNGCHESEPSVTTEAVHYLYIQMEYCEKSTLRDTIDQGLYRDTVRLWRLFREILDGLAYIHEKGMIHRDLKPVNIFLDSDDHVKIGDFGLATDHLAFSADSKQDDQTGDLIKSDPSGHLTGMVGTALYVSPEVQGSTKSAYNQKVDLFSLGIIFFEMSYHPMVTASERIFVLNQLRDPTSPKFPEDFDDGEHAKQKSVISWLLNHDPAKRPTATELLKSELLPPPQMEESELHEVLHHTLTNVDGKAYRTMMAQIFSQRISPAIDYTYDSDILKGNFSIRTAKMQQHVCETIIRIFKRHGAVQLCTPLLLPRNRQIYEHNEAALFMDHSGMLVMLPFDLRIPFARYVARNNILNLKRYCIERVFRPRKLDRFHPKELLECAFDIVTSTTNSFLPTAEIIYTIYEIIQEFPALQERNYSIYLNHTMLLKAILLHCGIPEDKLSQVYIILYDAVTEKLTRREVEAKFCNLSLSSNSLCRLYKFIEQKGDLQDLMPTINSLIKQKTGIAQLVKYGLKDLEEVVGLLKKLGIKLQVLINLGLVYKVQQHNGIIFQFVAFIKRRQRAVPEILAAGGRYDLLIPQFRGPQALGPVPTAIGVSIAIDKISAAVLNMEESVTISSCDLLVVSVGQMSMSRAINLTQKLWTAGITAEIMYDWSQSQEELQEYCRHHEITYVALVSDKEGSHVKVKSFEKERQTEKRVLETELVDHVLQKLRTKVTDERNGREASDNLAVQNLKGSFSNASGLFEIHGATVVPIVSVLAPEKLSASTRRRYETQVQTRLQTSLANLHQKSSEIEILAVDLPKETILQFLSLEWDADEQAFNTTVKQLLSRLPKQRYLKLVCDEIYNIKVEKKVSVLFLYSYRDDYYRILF

One test has as its target GCN2 (Homo sapiens, UniProt Q9P2K8). The experiment in a line: GCN2 enzymatic endpoint assay: phosphorylation of GFP-eIF2α measured by TR-FRET (Lanthascreen). In kind it is biochemical. Particulars: GCN2 biochemical IC50; 4 nM GCN2, 2 μM ATP, 80 nM GFP-eIF2α, 90 min RT; read-out: GCN2 activity. In a few lines:
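Read-out is the TR-FRET ratio of acceptor signal at 520 nm to terbium donor at 495 nm, rising with antibody binding to phosphorylated GFP-eIF2α. Endpoint format: 2 μM ATP, 80 nM substrate, 90 minutes at room temperature, EDTA stop.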
Turning to `CNC(=O)[C@]1(CC#N)CC[C@@H](Nc2ncc3c(Br)nn(-c4cc(F)c5ncccc5c4)c3n2)C1` [Example 40, (1R,3R)-3-((3-bromo-1-(8-fluoroquinolin-6-yl)-1H-pyrazolo[3,4-d]pyrimidin-6-yl)amino)-1-(cyanomethyl)-N-methylcyclopentane-1-carboxamide hydrochloride], the IC50 is under 0.025 µM.

As to `Cc1nnc(-c2ccc(-n3nc(Br)c4cnc(N[C@@H]5CC[C@@H](C(=O)N6CCNC(=O)C6)C5)nc43)cc2)o1` [Example 22, 4-((1R,3R)-3-((3-bromo-1-(4-(5-methyl-1,3,4-oxadiazol-2-yl)phenyl)-1H-pyrazolo[3,4-d]pyrimidin-6-yl)amino)cyclopentane-1-carbonyl)piperazin-2-one], the IC50 was 0.025 to 0.2 µM.

As to `Cc1nnc(-c2ccc(-n3nc(Br)c4cnc(N[C@@H]5CC[C@@H](P(C)(C)=O)C5)nc43)cc2)s1` [Example 57, ((1R,3R)-3-((3-bromo-1-(4-(5-methyl-1,3,4-thiadiazol-2-yl)phenyl)-1H-pyrazolo[3,4-d]pyrimidin-6-yl)amino)cyclopentyl)dimethylphosphine oxide], the IC50 lay in the range of 0.025 to 0.2 µM.

Still in this test, the particulars now being: tested as described in Example 77; compound and/or hydrochloride, dihydrochloride or trifluoroacetic acid salt; read-out: IC 50 Activity.
On to `CNC(=O)[C@]1(C)CC[C@@H](Nc2ncc3c(Br)nn(-c4cc(Cl)cc(C5CN(C)C(=O)CO5)c4)c3n2)C1` (stereo partly drawn) [(1R,3R)-3-[[3-bromo-1-[3-chloro-5-(4-methyl-5-oxo-morpholin-2-yl)phenyl]pyrazolo[3,4-d]pyrimidin-6-yl]amino]-N,1-dimethyl-cyclopentane-carboxamide], for which the IC50 lay in the range of 0.025 to 0.2 µM.

Take `CNC(=O)[C@]1(C)CC[C@@H](Nc2ncc3c(Br)nn(-c4ccc(-c5ncco5)c([C@H](C)CN)c4)c3n2)C1` [(1R,3R)-3-[[1-[3-[(1S)-2-amino-1-methyl-ethyl]-4-oxazol-2-yl-phenyl]-3-bromo-pyrazolo[3,4-d]pyrimidin-6-yl]amino]-N,1-dimethyl-cyclopentanecarboxamide]: the IC50 lay within 0.025 to 0.2 µM.

In the case of `CNC(=O)[C@]1(CCOC)CC[C@@H](Nc2ncc3c(Br)nn(-c4ccc(-c5nnc(C)s5)c(CCC#N)c4)c3n2)C1` [(1R,3R)-3-[[3-bromo-1-[3-(2-cyano-ethyl)-4-(5-methyl-1,3,4-thiadiazol-2-yl)phenyl]pyrazolo[3,4-d]pyrimidin-6-yl]amino]-1-(2-methoxyethyl)-N-methyl-cyclopentanecarboxamide; 2,2,2-trifluoroacetic acid], the IC50 was 0.025 to 0.2 µM.

For `Cc1nnc(-c2ccc(-n3nc(Br)c4cnc(NC5CC(P(C)(C)=O)C5)nc43)cc2CCC#N)s1` (stereo not drawn) [3-[5-[3-bromo-6-[(3-dimethylphosphoryl-cyclobutyl)amino]pyrazolo[3,4-d]pyrimidin-1-yl]-2-(5-methyl-1,3,4-thiadiazol-2-yl)phenyl]propanenitrile], the IC50 is 0.025 to 0.2 µM.

`CN1C(=O)CCC1CNC(=O)[C@@H]1CC[C@@H](Nc2ncc3c(Br)nn(-c4cc(C#N)c5ncccc5c4)c3n2)C1` (stereo partly drawn): the IC50 is under 0.025 µM.

On to `CNC(=O)[C@]1(C)CC[C@@H](Nc2ncc3c(Br)nn(-c4cc(Cl)c(F)c(CC#N)c4)c3n2)C1`, for which the IC50 was in the range of 0.025 to 0.2 µM.

For the compound `CNC(=O)[C@]1(C)CC[C@@H](Nc2ncc3c(Br)nn(-c4ccc(-c5cccnc5)c(CN)c4)c3n2)C1` [(1R,3R)-3-[[1-[3-(aminomethyl)-4-(3-pyridyl)phenyl]-3-bromo-pyrazolo[3,4-d]pyrimidin-6-yl]amino]-N,1-dimethyl-cyclopentane-carboxamide], the IC50 lay within 0.025 to 0.2 µM.

Consider `CNC(=O)[C@]1(C)CC[C@@H](Nc2ncc3c(Br)nn(-c4ccc(C#N)c(OCC5(F)CNC5)c4)c3n2)C1` [(1R,3R)-3-[[3-bromo-1-[4-cyano-3-[(3-fluoroazetidin-3-yl)methoxy]phenyl]pyrazolo[3,4-d]pyrimidin-6-yl]amino]-N,1-dimethyl-cyclopentanecarboxamide], for which the IC50 lay in the range of 0.025 to 0.2 µM.

As for `CNC(=O)[C@]1(C)CC[C@@H](Nc2ncc3c(Br)nn(-c4cc(C(C)O)c5nccnc5c4)c3n2)C1` (stereo partly drawn) [(1R,3R)-3-[[3-bromo-1-[8-(1-hydroxy-ethyl)quinoxalin-6-yl]pyrazolo[3,4-d]pyrimidin-6-yl]amino]-N,1-dimethyl-cyclopentanecarboxamide], the IC50 was 0.025 to 0.2 µM.

Take `O=C([C@@H]1CC[C@@H](Nc2ncc3c(Br)nn(-c4ccc5ncccc5c4)c3n2)C1)N1CC2(CCNC2)C1` [((1R,3R)-3-((3-bromo-1-(quinolin-6-yl)-1H-pyrazolo[3,4-d]pyrimidin-6-yl)amino)cyclo-pentyl)(2,6-diazaspiro[3.4]octan-2-yl) methanone]: the IC50 was 0.025 to 0.2 µM.

For the compound `CC1(C(=O)N2CNC(=O)C2)CC[C@@H](Nc2ncc3c(Br)nn(-c4cc(F)c5ncccc5c4)c3n2)C1` (stereo partly drawn) [1-[(3R)-3-[[3-bromo-1-(8-fluoro-6-quinolyl)pyrazolo[3,4-d]pyrimidin-6-yl]amino]-1-methyl-cyclopentanecarbonyl]imidazolidin-4-one], the IC50 was under 0.025 µM.

For `CNC(=O)[C@@]1(C)CC[C@@H](Nc2ncc3c(Br)nn(-c4ccc5nc(OC)ccc5c4)c3n2)C1` [(1S,3R)-3-[[3-bromo-1-(2-methoxy-6-quinolyl)pyrazolo[3,4-d]pyrimidin-6-yl]amino]-N,1-dimethyl-cyclopentane-carboxamide], the IC50 was under 0.025 µM.

Take `CNC(=O)[C@]1(C)CC[C@@H](Nc2ncc3c(Br)nn(-c4ccc(-c5nnc(CCOC)s5)cc4)c3n2)C1`: the IC50 lay in the range of 0.025 to 0.2 µM.

In the case of `CNC(=O)[C@]1(C)CC[C@@H](Nc2ncc3c(Br)nn(-c4ccc5c(c4)CNC(=O)C5)c3n2)C1` [(1R,3R)-3-[[3-bromo-1-(3-oxo-2,4-dihydro-1H-isoquinolin-7-yl)pyrazolo [3,4-d]pyrimidin-6-yl]amino]-N,1-dimethyl-cyclopentanecarboxamide], the IC50 fell in the range of 0.025 to 0.2 µM.

Take `O=C([C@@H]1CC[C@@H](Nc2ncc3c(Br)nn(-c4cc(F)c5ncccc5c4)c3n2)C1)N1CCN2CCOC[C@@H]2C1` [((1R,3R)-3-((3-bromo-1-(8-fluoroquinolin-6-yl)-1H-pyrazolo[3,4-d]pyrimidin-6-yl)amino)cyclopentyl)((S)-hexahydropyrazino[2,1-c] [1,4]oxazin-8(1H)-yl)methanone]: the IC50 lay within 0.025 to 0.2 µM.

`CNC(=O)[C@]1(C)CC[C@@H](Nc2ncc3c(Br)nn(-c4cc(F)c5ncccc5c4)c3n2)C1` [(1R,3R)-3-((3-bromo-1-(8-fluoroquinolin-6-yl)-1H-pyrazolo[3,4-d]pyrimidin-6-yl)amino)-N,1-dimethylcyclopentane-1-carboxamide]: the IC50 was 0.025 to 0.2 µM.

With `O=C([C@@H]1CC[C@@H](Nc2ncc3c(Br)nn(-c4cc(F)c5ncccc5c4)c3n2)C1)N1CCC(O)(C(=O)O)C1` (stereo partly drawn) [1-((1R,3R)-3-((3-bromo-1-(8-fluoroquinolin-6-yl)-1H-pyrazolo[3,4-d]pyrimidin-6-yl)amino)cyclopentane-1-carbonyl)-3-hydroxy-pyrrolidine-3-carboxylic acid], the IC50 was in the range of 0.5 to 1 µM.

`O=C(NCCN1CCNC1=O)[C@@H]1CC[C@@H](Nc2ncc3c(Br)nn(-c4cc(F)c5ncccc5c4)c3n2)C1` [(1R,3R)-3-((3-bromo-1-(8-fluoroquinolin-6-yl)-1H-pyrazolo[3,4-d]pyrimidin-6-yl)amino)-N-(2-(2-oxoimidazolidin-1-yl)ethyl)cyclo-pentane-1-carboxamide]: the IC50 is 0.025 to 0.2 µM.

Turning to `CN1CCN(C(=O)[C@@H]2CC[C@@H](Nc3ncc4c(Br)nn(-c5cc(F)c6ncccc6c5)c4n3)C2)CC1=O` [4-((1R,3R)-3-((3-bromo-1-(8-fluoroquinolin-6-yl)-1H-pyrazolo[3,4-d]pyrimidin-6-yl)amino)cyclopentane-1-carbonyl)-1-methyl-piperazin-2-one], the IC50 lay within 0.025 to 0.2 µM.

With `CNC(=O)[C@]1(C)CC[C@@H](Nc2ncc3c(Br)nn(-c4ccc5nc(OC)ncc5c4)c3n2)C1` [(1R,3R)-3-[[3-bromo-1-(2-methoxy-quinazolin-6-yl)pyrazolo[3,4-d]pyrimidin-6-yl]amino]-N,1-dimethyl-cyclopentane-carboxamide; 2,2,2-trifluoroacetic acid], the IC50 was under 0.025 µM.

For the compound `C[C@H](N)c1cc(Cl)cc(-n2nc(Br)c3cnc(N[C@@H]4CC[C@@](C)(C(=O)N5CCNCC5)C4)nc32)c1` [[(1R,3R)-3-[[1-[3-[(1S)-1-aminoethyl]-5-chloro-phenyl]-3-bromo-pyrazolo [3,4-d]pyrimidin-6-yl]amino]-1-methyl-cyclopentyl]-piperazin-1-yl-methanone], the IC50 lay in the range of 0.025 to 0.2 µM.

For `Cc1nnc(-c2ccc(-n3nc(Br)c4cnc(N[C@@H]5CCC(CN6CCOCC6)(C(=O)O)C5)nc43)cc2)s1` (stereo partly drawn), the IC50 lay in the range of 0.025 to 0.2 µM.

As to `O=C(NCc1nnn[nH]1)[C@@H]1CC[C@@H](Nc2ncc3c(Br)nn(-c4cc(F)c5ncccc5c4)c3n2)C1` [(1R,3R)-N-((1H-tetrazol-5-yl)methyl)-3-((3-bromo-1-(8-fluoroquinolin-6-yl)-1H-pyrazolo [3,4-d]pyrimidin-6-yl)amino)cyclopentane-1-carboxamide], the IC50 is 0.025 to 0.2 µM.

On to `CC(CNC(=O)[C@@H]1CC[C@@H](Nc2ncc3c(Br)nn(-c4ccc5ncccc5c4)c3n2)C1)N1CCCC1` (stereo partly drawn) [(1R,3R)-3-((3-bromo-1-(quinolin-6-yl)-1H-pyrazolo[3,4-d]pyrimidin-6-yl)amino)-N-(2-(pyrrolidin-1-yl)propyl)cyclopentane-1-carboxamide], for which the IC50 fell in the range of 0.025 to 0.2 µM.

On to `CNC(=O)[C@]1(C(C)C)CC[C@@H](Nc2ncc3c(Br)nn(-c4cc([C@@H](C)N)c5nccnc5c4)c3n2)C1`, for which the IC50 was under 0.025 µM.

`C[C@H](N)c1cc(Cl)cc(-n2nc(Br)c3cnc(N[C@@H]4CC[C@@](C)(C#N)C4)nc32)c1`: the IC50 lay in the range of 0.025 to 0.2 µM.

As to `N#Cc1cc(-n2nc(Br)c3cnc(N[C@@H]4CC[C@@H](C(=O)N[C@H]5CCNC5)C4)nc32)cc2cccnc12` [(1R,3R)-3-((3-bromo-1-(8-cyanoquinolin-6-yl)-1H-pyrazolo[3,4-d]pyrimidin-6-yl)amino)-N-((S)-pyrrolidin-3-yl)cyclopentane-1-carboxamide], the IC50 was under 0.025 µM.

(Values after patent US11046699B2, “Pyrazolo-pyrimidin-amino-cycloalkyl compounds and their therapeutic uses” (RAPT THERAPEUTICS, INC., priority 2018, dated 2021).)
